Key:
[1] = TK assay, oral mixture dosing: serum concentrations and noncompartmental analysis (sparse data)
Protocol: The experiment was carried out on thirty 10-wk old female New Zealand white rabbits (INRA 1777 line) weighing 2.37±0.14kg . […] Blood samples were taken at the designated time points post IV and oral administration: 15 min, 30 min, 1 h, 2 h, 4 h, 8 h, 12 h, 24 h, 3 d, 7 d, and 28 d from groups of 3 or 6 rabbits at each sampling time. Each rabbit was sampled 3 times and 3 rabbits were sampled at each sampling time, except at 30 min post administration, when 6 samples were collected to provide a sufficient blood volume for assaying the compounds. The doses and assay time points were selected to allow the calculation of TK parameters (Table 1) based on preliminary TK data. Residual concentrations of the compounds, and their possible evolution over time, were determined by sampling six entirely untreated rabbits during the TK study on the day of drug administrations, then 14 d and 28 d later.
The volume administered was adjusted to the animal’s body weight (BW) recorded the day before.
Intravenous administrations were performed via an indwelling catheter (22G Terumo, 0.9×25mm ) just after its insertion into an ear vein. […] For oral administrations, the mixture of all compounds ( 4mL/kg ) was deposited directly in the mouth of rabbits using a catheter (22G BD Insyte 22G, 0.9×25mm ). Prior to the study, the rabbits had been trained to gradually swallow water and then corn oil.
Blood samples were collected from the auricular artery using a 20 G needle ( 0.9×25mm ) and a dry tube. The first two blood samples were 8–10mL in volume, whereas a large volume (about 20mL ) was obtained antemortem immediately after electrical stunning (95LX rabbit stunner; Burdis), followed by exsanguination.
Serum concentration-time profiles of the different compounds were first analyzed using a noncompartmental approach (NCA) involving a sparse data option. Sparse data methodology consists of calculating TK parameters based on the mean profile of all the subjects in the dataset and is appropriate when a rich data series cannot be obtained, as in the present experiment ([FDA 1999]). The area under the concentration time curve ( AUC0−tlast ) and the area under the first moment curve ( AUMC0−tlast ) from dosing time ( t=0 ) to the time of the last measurable concentration were calculated using the linear trapezoidal rule after IV and oral dosing. The area under the serum concentration time curve from dosing time to infinity ( AUC0−inf ) was obtained by adding to AUC0−tlast the area extrapolated from the time of the last measurable concentration to infinity by dividing the last quantifiable serum concentration by the slope of the terminal phase ( λZ ), as estimated by linear regression using the best fit option of Phoenix®.
The clearance (CL) and apparent clearance (CL_F) were respectively estimated after IV and oral administrations by dividing the administered dose by the AUC0−inf calculated for each analyte.
The terminal half-life (HL) was estimated with Equation 1: (1) HL=0.69315/λZ where λz is the slope of the terminal phase.
The oral bioavailability (F) was estimated using Equation 2: (2) F=AUCvo0−tlast×Doseiv/AUCiv0−tlast×Dosevo, where AUCiv0−tlast and AUCvo0-tlast are the values of AUC0−tlast obtained after IV and oral dosing, respectively, and Doseiv and Dosevo are the IV and oral doses.

[2] = Nonlinear mixed effect (NLME) compartmental modeling of merged IV and oral serum concentrations; settings: for AUCVO/dose: oral dosing; for Volume(s) of the peripheral compartment: for PFOA first peripheral compartment
Excerpt: A nonlinear mixed effect (NLME) modeling approach was used to analyze simultaneously all data obtained from the different rabbits after both IV and oral administrations and to provide robust estimates of the typical TK parameters.
The primary parameters of the model, namely the volume of distribution of the central compartment (V1), the first-order rate constants ( K10 , K12 , K21 , and Kabs plus K13 , K31 for PFOA) and the bioavailability (F) and their associated precisions [standard error (SE)] were estimated by minimizing an objective function value (OFV) expressed as minus twice the log of the likelihood estimation ( −2LL ). […] Marginal likelihood was approximated by using the Laplacian engine by default and, when this engine was unable to determine the SE of the estimate, the Quasi-Random Parametric Expectation Maximization (QRPEM) was selected.
Between subject variability (BSV) of the parameters was measured using the exponential model θparameter_i=θtv_parameter×exp (ηi), where θparameter_i is the parameter estimated for the ith individual, θtv_parameter is the typical population value of the parameter, and ηi is the deviation associated with the ith individual from the corresponding value of the parameter at the population level.
The distribution of ηi was assumed to be normal with a mean of 0 and a variance ω² . BSV was reported as a coefficient of variation (CV) in the original scale CV(%)=100× exp (ω^2)−1 .
The residual variance was modeled using a combined additive and proportional error model Cobsij=Cpredij(1 + ε1ij) + ε2ij, where Cobsij and Cpredij are respectively the jth observed and predicted concentrations for the ith individual, and ε1ij and ε2ij are the multiplicative and additive residual errors.
Secondary parameters were calculated from the population primary parameters.
The clearance values (CL) were estimated using Equation 5: (5) CL=K10×V1, where V1 is the volume of the central compartment and K10 is the elimination rate constant from the central compartment.
The volume of the peripheral compartment (V2) was estimated with Equation 6: (6) V2=V1×(K12/K21), where K12 and K21 are the distribution rate constants between the central and the peripheral compartments.
The clearance of distribution (Q) was estimated using Equation 7: (7) Q=K12×V1, with […] and K12 as defined above.
The volume of distribution associated with the terminal phase was estimated with Equation 10: (10) VZ=CL/λZ, with λZ as defined above.
The AUC was computed as a secondary parameter using Equation 11: (11) AUC=Dose/CL.
The terminal half-life was estimated with Equation 1, as previously described.

[3] = oral mixture dosing, NCA, n=12, MEHP after oral DEHP
[4] = population primary parameter, typical value, mean
[5] = population primary parameter, typical value, mean, MEHP after oral DEHP
[6] = population secondary parameter, mean
[7] = female, New Zealand white (INRA 1777 line), rabbit, in vivo, po
[8] = female, New Zealand white, rabbit, in vivo

## O=S(=O)(O)C(F)(F)C(F)(F)C(F)(F)C(F)(F)C(F)(F)C(F)(F)C(F)(F)C(F)(F)F [nPFOS, linear isomer of perfluorooctane sulfonate]
[1]; NCA
  Oral bioavailability estimated by NCA: greater than 100%
[1]; oral mixture dosing, NCA, n=12
  CL_F (apparent clearance): 0.00347 mL/min/kg
[1]; [3]
  MRT: 69.92 days
  Tmax: 1 days
  VZ_F (apparent volume of distribution associated to the terminal phase): 0.359 L/kg
[1]; oral, rabbit 13, 4.30 h, MEHP after oral DEHP
  Serum concentration: 710 nM
[1]; oral, rabbit 14, 0.37 h, MEHP after oral DEHP
  Serum concentration: 230 nM
[1]; oral, rabbit 14, 4.17 h, MEHP after oral DEHP
  Serum concentration: 890 nM
[1]; oral, rabbit 15, 4.05 h, MEHP after oral DEHP
  Serum concentration: 1040 nM
[1]; oral, rabbit 15, 23.98 h, MEHP after oral DEHP
  Serum concentration: 1280 nM
[1]; oral, rabbit 16, 0.55 h, MEHP after oral DEHP
  Serum concentration: 140 nM
[1]; oral, rabbit 16, 72.00 h, MEHP after oral DEHP
  Serum concentration: 1100 nM
[1]; oral, rabbit 17, 0.53 h, MEHP after oral DEHP
  Serum concentration: 120 nM
[1]; oral, rabbit 17, 72.00 h, MEHP after oral DEHP
  Serum concentration: 1540 nM
[1]; oral, rabbit 18, 0.55 h, MEHP after oral DEHP
  Serum concentration: 290 nM
[1]; oral, rabbit 18, 71.96 h, MEHP after oral DEHP
  Serum concentration: 1250 nM
[1]; oral, rabbit 19, 12.00 h, MEHP after oral DEHP
  Serum concentration: 660 nM
[1]; oral, rabbit 19, 168.02 h
  Serum concentration: 1010 nM
[1]; oral, rabbit 20, 12.00 h, MEHP after oral DEHP
  Serum concentration: 690 nM
[1]; oral, rabbit 20, 168.00 h
  Serum concentration: 1070 nM
[1]; oral, rabbit 21, 12.00 h, MEHP after oral DEHP
  Serum concentration: 810 nM
[1]; oral, rabbit 21, 168.00 h
  Serum concentration: 1060 nM
[1]; oral, rabbit 22, 672.02 h
  Serum concentration: 450 nM
[1]; oral, rabbit 23, 671.96 h
  Serum concentration: 820 nM
[1]; oral, rabbit 24, 672.02 h
  Serum concentration: 1020 nM
[1]; serum, oral mixture dosing, NCA, n=12, MEHP after oral DEHP
  AUC0−inf: 1,919 μmol×h/L
[1]; serum, oral mixture dosing, NCA, n=12, doses in Table 3 r3, MEHP measured after oral DEHP, BPSG after BPS
  Cmax: 1300 nM
[2]; NLME model
  MRT: 47.6 days
  Oral bioavailability (F): total
  Terminal HL: 33 days
[2]; dosing time to infinity after intravenous dosing, population secondary parameter
  AUCIV: 355 µM·h
[2]; dosing time to infinity after oral dosing, population secondary parameter, MEHP after oral DEHP
  AUCVO: 1,246 μmol×h/L
[2]
  AUCVO/dose: 3,115 μmol×h/L per μmol/kg BW
[2]; oral, population secondary parameter, mean, as fraction
  bioavailability: 1
[2]; [4]
  tvK10 (elimination rate constant from the central compartment): 0.00111 h⁻¹
  tvK12 (distribution rate constant): 0.153 h⁻¹
  tvK21 (distribution rate constant): 0.581 h⁻¹
  tvVc (volume of the central compartment): 0.290 L/kg
[2]; [5]
  tvKabs (rate constant of absorption): 0.252 h⁻¹
[2]; [6]
  Clearance: 0.00533 mL/min/kg
  VSS: 0.37 L/kg
  Volume(s) of the peripheral compartment: 0.077 L/kg
[2]; terminal, population secondary parameter, mean
  half-life: 33 days

## Cl[C@H]1[C@H](Cl)[C@@H](Cl)[C@H](Cl)[C@@H](Cl)[C@@H]1Cl [β-HCH, β-hexachlorocyclohexane]
[1]; [7]
  AUC(0-inf): 67.1 µM·h
  CL/F: 1.73 mL/min/kg
  Cmax: 297 nM
  MRT: 15.4 days
  Tmax: 1 days
  Vd/F: 47 L/kg
  bioavailability: 55%
  half-life: 13.1 days
[1]; female, New Zealand white (INRA 1777 line), rabbit, in vivo, po, Serum concentration, oral, rabbit 13, […], MEHP after oral DEHP
  concentration at 24 h: 390 nM
[1]; female, New Zealand white (INRA 1777 line), rabbit, in vivo, po, Serum concentration, oral, rabbit 14, […], MEHP after oral DEHP
  concentration at 24 h: 200 nM
[1]; female, New Zealand white (INRA 1777 line), rabbit, in vivo, po, Serum concentration, oral, rabbit 15, 23.98 h, MEHP after oral DEHP
  concentration at 23.98 h: 190 nM
[1]; female, New Zealand white (INRA 1777 line), rabbit, in vivo, po, Serum concentration, rabbit 21, 168.00 h
  concentration at 168 h: 99 nM
[1]; female, New Zealand white (INRA 1777 line), rabbit, in vivo, po, Serum concentration, rabbit 22, 0.57 h
  concentration at 0.57 h: 29 nM
[1]; female, New Zealand white (INRA 1777 line), rabbit, in vivo, po, Serum concentration, rabbit 22, 672.02 h
  concentration at 672.02 h: 13 nM
[1]; female, New Zealand white (INRA 1777 line), rabbit, in vivo, po, Serum concentration, rabbit 23, 0.55 h
  concentration at 0.55 h: 73 nM
[1]; female, New Zealand white (INRA 1777 line), rabbit, in vivo, po, Serum concentration, rabbit 23, 671.96 h
  concentration at 671.96 h: 30 nM
[1]; female, New Zealand white (INRA 1777 line), rabbit, in vivo, po, Serum concentration, rabbit 24, 0.55 h
  concentration at 0.55 h: 250 nM
[1]; female, New Zealand white (INRA 1777 line), rabbit, in vivo, po, Serum concentration, rabbit 24, 672.02 h
  concentration at 672.02 h: 43 nM
[1]; female, New Zealand white, rabbit, in vivo, po, Serum concentration, oral, rabbit 16, 72.00 h, MEHP after oral DEHP
  concentration at 72 h: 94 nM
[1]; female, New Zealand white, rabbit, in vivo, po, Serum concentration, oral, rabbit 17, 72.00 h, MEHP after oral DEHP
  concentration at 72 h: 160 nM
[1]; female, New Zealand white, rabbit, in vivo, po, Serum concentration, oral, rabbit 18, 71.96 h, MEHP after oral DEHP
  concentration at 71.96 h: 180 nM
[1]; female, New Zealand white, rabbit, in vivo, po, Serum concentration, rabbit 19, 168.02 h
  concentration at 168.02 h: 88 nM
[1]; female, New Zealand white, rabbit, in vivo, po, Serum concentration, rabbit 20, 168.00 h
  concentration at 168 h: 89 nM
[2]; female, New Zealand white (INRA 1777 line), rabbit, in vivo
  Vd: 33 L/kg
[2]; female, New Zealand white (INRA 1777 line), rabbit, in vivo, po, Oral bioavailability (F), NLME model
  bioavailability: > 85%
[2]; female, New Zealand white (INRA 1777 line), rabbit, serum, other: intravenous and oral data merged
  k el: 4.69e-06 s⁻¹
[2]; [8]
  MRT: 15.8 days
  half-life: 13.2 days
[2]; female, New Zealand white, rabbit, in vivo, Clearance, population secondary parameter, mean
  clearance: 1.45 mL/min/kg
[2]; female, New Zealand white, rabbit, in vivo, iv
  AUC: 20 µM·h
[2]; female, New Zealand white, rabbit, in vivo, po
  AUC: 87 µM·h
[2]; female, New Zealand white, rabbit, in vivo, po, Bioavailability, population secondary parameter, mean, as fraction
  bioavailability: 88%
[2]
  AUCVO/dose: 12.5 μmol×h/L per μmol/kg BW
[2]; [4]
  tvK12 (distribution rate constant): 0.0593 h⁻¹
  tvK21 (distribution rate constant): 0.0110 h⁻¹
  tvVc (volume of the central compartment): 5.1310 L/kg
[2]; [5]
  tvKabs (rate constant of absorption): 0.0955 h⁻¹
[2]; [6]
  Volume(s) of the peripheral compartment: 28 L/kg

Source: PMC8597046, “Use of Mixture Dosing and Nonlinear Mixed Effect Modeling of Eight Environmental Contaminants in Rabbits to Improve Extrapolation Value of Toxicokinetic Data” (Environmental Health Perspectives, 2021)
